Reference: PubChem BioAssay AID686962 (Sanford-Burnham Center for Chemical Genomics, 2013)
Calls of active or inactive are those of the source.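 The calls were made as follows: active = IC50 at or below 20 µM in the dose response confirmation; inactive = the rest.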

Target: Low molecular weight phosphotyrosine protein phosphatase (Homo sapiens) (UniProt P24666)
Assay: LMPTP phosphatase inhibitors, SAR follow-up, biochemical, fluorescence intensity (AID 686962)
Details: recombinant LMPTP-A, OMFP fluorogenic substrate, 50 min

Low molecular weight phosphotyrosine protein phosphatase (Homo sapiens), sequence (P24666 whole entry, looked up): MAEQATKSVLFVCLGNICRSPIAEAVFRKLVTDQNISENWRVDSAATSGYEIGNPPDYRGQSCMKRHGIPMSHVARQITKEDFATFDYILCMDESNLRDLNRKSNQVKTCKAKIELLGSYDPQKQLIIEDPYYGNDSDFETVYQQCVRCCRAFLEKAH

Row | Structure (SMILES) | IC50
1 | Cc1cccc(-c2nc(NCCCN3CCOCC3)c3ccccc3n2)c1 | 13.5 µM
2 | Fc1ccccc1-c1nc(NC2CCCC2)c2ccccc2n1 | 10.6 µM
3 | c1ccc(-c2cc(N3CCCCC3)c3ccccc3n2)cc1 | 11.1 µM
4 | Cc1ccc(-c2nc(NCCN3CCOCC3)c3ccccc3n2)cc1 | 18.8 µM
5 | c1ccc(-c2nc(NCCCn3ccnc3)c3ccccc3n2)cc1 | 17.8 µM
6 | Cc1ccc(-c2nc(NCc3cccnc3)c3ccccc3n2)cc1 | 12.9 µM
7 | Cc1c(CCC(=O)O)c(=O)oc2c(C)c(OCc3ccccc3Cl)ccc12 | 7.41 µM
8 | CC(C)OCCCNc1nc(-c2ccccc2)nc2ccccc12 | 18.1 µM
9 | CCc1nc(N)nc(N)c1-c1ccc(Cl)cc1 | 14.7 µM
10 | c1ccc(-c2nc(NCc3cccnc3)c3ccccc3n2)cc1 | 19 µM
11 | Nc1nc(N)c(Cc2ccc(Cl)cc2Cl)c(N)n1 | 11.5 µM
12 | COc1ccccc1CNc1ncnc2ccsc12 | > 80 µM (inactive)
13 | O=C(OCCNc1nc(-c2ccccc2)nc2ccccc12)c1cccnc1 | inactive
14 | Clc1cccc(Cl)c1Cn1cnc(=NCc2ccco2)c2[nH]cnc21 | 10.2 µM
15 | O=C(OCCNc1nc(-c2ccccc2)nc2ccccc12)c1ccncc1 | inactive
16 | Fc1ccccc1-c1nc(NCCCN2CCOCC2)c2ccccc2n1 | inactive
17 | c1ccc(-c2cc(NCCN3CCCCC3)c3ccccc3n2)cc1 | 2.86 µM
